The target in the assay is IRAK4 kinase (Homo sapiens (Human), UniProt Q9NWZ3). Put plainly: IRAK4 Kinase Inhibition Assay (Cisbio HTRF KinEASE-STK S1 kit). It is filed as biochemical. The note with it: IRAK4 kinase protein 10 nM, ATP 200 μM, STK Substrate 1-biotin 1 μM, 37° C. 2 h, read-out: IC50 (nM), IRAK4 kinase inhibitory activity. As for the experimental part: Test Example 1. IRAK4 Kinase Inhibition Assay
In this assay, Cisbio HTRF KinEASE-STK SI kit (62S 1 PEB) was used, in which assay/detection buffer, STK Substrate 1-biotin, Streptavidin-XL665, STK Antibody-Cryptate were contained.
After adding compound/DMSO to a 384-well plate (PerkinElmer 6008280) using Echo 665, 5 μL of 2-fold reaction concentration of IRAK4 kinase protein (final concentration: 10 nM) dissolved with assay buffer [1 volume of 5× kinase buffer+20 mM magnesium chloride (Sigma) solution+1 mM DTT (Alfa Aesar) solution+4 volumes deionized water] was added, followed by sealing the shallow well plate, shaking and then centrifuging at 1000 rpm for 1 min, and incubating at room temperature for 5 min; then 5 μL of 2-fold reaction concentration of a 1:1 mixture of STK Substrate 1-biotin (final concentration: 1 μM) and ATP (Sigma A1852) (final concentration: 200 μM) formulated with assay buffer was added, followed by sealing the shallow well plate, shaking and then centrifuging at 1000 rpm for 1 min, and incubating at 37° C. for 2 h, and then 10 μL of a 1:1 mixture of Streptavidin-XL665 (final concentration: 62.5 nM) and STK-antibody-cryptate dissolved with detection buffer was added, followed by sealing the shallow well plate, shaking and then centrifuging at 1000 rpm for 1 min, and incubating at room temperature for 1 h, and thereafter reading the value at the wavelength of 620 nm/665 nm using a microplate reader. The data were analyzed using Prism 9.3 software, and the IC50 value of IRAK4 kinase inhibition was fitted using a four parameter Logistic equation.

Where a name gives a salt, the structure may show the parent alone.

IRAK4 kinase, sequence (Q9NWZ3 whole entry): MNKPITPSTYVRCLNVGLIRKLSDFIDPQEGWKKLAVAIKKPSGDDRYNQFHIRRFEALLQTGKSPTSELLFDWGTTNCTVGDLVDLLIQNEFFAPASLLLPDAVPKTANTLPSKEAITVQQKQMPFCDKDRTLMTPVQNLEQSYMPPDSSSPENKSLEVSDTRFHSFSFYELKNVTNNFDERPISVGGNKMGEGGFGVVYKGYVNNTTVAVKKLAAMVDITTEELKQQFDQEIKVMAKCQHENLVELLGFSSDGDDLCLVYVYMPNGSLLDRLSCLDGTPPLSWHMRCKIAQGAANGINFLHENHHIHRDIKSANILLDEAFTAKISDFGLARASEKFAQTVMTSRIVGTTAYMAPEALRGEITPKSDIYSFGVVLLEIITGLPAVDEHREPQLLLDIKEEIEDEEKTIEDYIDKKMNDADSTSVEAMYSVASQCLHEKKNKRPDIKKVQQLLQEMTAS

For the compound `O=S1(=O)CCN(c2ccn3ncc(-c4cn(-c5cn([C@H]6CC[C@H](CO)CC6)nc5C(F)F)nn4)c3n2)CC1` [Compound 91A, 4-(3-(1-(3-(difluoromethyl)-1-((1r,4r)-4-(methylol)cyclohexyl)-1H-pyrazol-4-yl)-1H-1,2,3-triazol-4-yl)pyrazolo[1,5-a]pyrimidin-5-yl)thiomorpholine 1,1-dioxide], the concentration for half-maximal inhibition (IC50) was 100 to 1000 nM.

In the case of `CC(C)(O)CCNc1ccn2ncc(-c3cn(-c4cn([C@H]5CC[C@H](CO)CC5)nc4C(F)F)nn3)c2n1` [Compound 92A, 4-((3-(1-(3-(difluoromethyl)-1-((1r,4r)-4-(methylol)cyclohexyl)-1H-pyrazol-4-yl)-1H-1,2,3-triazol-4-yl]pyrazolo[1,5-a]pyrimidin-5-yl)amino)-2-methylbutan-2-ol], the IC50 is < 100 nM. The same measure for `CC1(O)CCN(c2ccn3ncc(-c4cn(-c5cn([C@H]6CC[C@H](CO)CC6)nc5C(F)F)nn4)c3n2)CC1` [Compound 93A, 1-(3-(1-(3-difluoromethyl)-1-((1r,4r)-4-(methylol)cyclohexyl)-1H-pyrazol-4-yl)-1H-1,2,3-triazol-4-ylpyrazolo[1,5-a]pyrimidin-5-yl)-4-methylpiperidin-4-ol]: < 100 nM; for `OC[C@H]1CC[C@H](n2cc(-n3cc(-c4cnn5ccc(NCC6CC6)nc45)nn3)c(C(F)F)n2)CC1` [Compound 94A, ((1r,4r)-4-(4-(4-(5-((cyclopropylmethyl)amino)pyrazolo[1,5-a]pyrimidin-3-yl)-1H-1,2,3-triazol-1-yl)-3-(difluoromethyl)-1H-pyrazol-1-yl)cyclohexyl)methanol]: < 100 nM. Regarding `CN1CCN(c2ccn3ncc(-c4cn(-c5cn([C@H]6CC[C@H](CO)CC6)nc5C(F)F)nn4)c3n2)CC1` [Compound 95A, (1R,4R)-4-(3-difluoromethyl)-4-(4-(5-(4-methylpiperazin-1-yl)pyrazolo[1,5-a]pyrimidin-3-yl)-1H-1,2,3-triazol-1-yl)-1H-pyrazol-1-yl)cyclohexylmethanol formate], the 50% inhibitory concentration (IC50) fell in the range of 100 to 1000 nM. For `OC[C@H]1CC[C@H](n2cc(-n3cc(-c4cnn5ccc(N6CC(O)C6)nc45)nn3)c(C(F)F)n2)CC1` [Compound 96A, 1-(3-(1-(3-difluoromethyl)-1-((1r,4r)-4-(methylol)cyclohexyl)-1H-pyrazol-4-yl)-1H-1,2,3-triazol-4-ylpyrazolo[1,5-a]pyrimidin-5-yl)azetidin-3-ol], the IC50 lay in the range of 100 to 1000 nM.

On to `OC[C@H]1CC[C@H](n2cc(-n3cc(-c4cnn5ccc(N6CCC(O)CC6)nc45)nn3)c(C(F)F)n2)CC1` [Compound 97A], for which the IC50 is < 100 nM. In the case of `OC[C@H]1CC[C@H](n2cc(-n3cc(-c4cnn5ccc(N6CCCOCC6)nc45)nn3)c(C(F)F)n2)CC1` [Compound 98A], the IC50 was < 100 nM. The same measure for `OCC1CCC(n2cc(-n3cc(-c4cnn5ccc(N6CC7CC[C@H](C6)O7)nc45)nn3)c(C(F)F)n2)CC1` (stereo partly shown) [Compound 99A, ((1r,4r)-4-(4-(4-(5-(8-oxa-3-azabicyclo[3.2.1]oct-3-yl)pyrazolo[1,5-a]pyrimidin-3-yl)-1H-1,2,3-triazol-1-yl)-3-(difluoromethyl)-1H-pyrazol 1-yl)cyclohexyl)methanol]: 100 to 1000 nM; for `OC[C@H]1CC[C@H](n2cc(-n3cc(-c4cnn5ccc(N6CCCC(O)C6)nc45)nn3)c(C(F)F)n2)CC1` (stereo partly shown) [Compound 100A]: < 100 nM. On to `OC[C@H]1CC[C@H](n2cc(-n3cc(-c4cnn5ccc(N6CCC(O)C6)nc45)nn3)c(C(F)F)n2)CC1` (stereo partly shown) [Compound 101A], for which the half-maximal inhibitory concentration (IC50) lay in the range of 100 to 1000 nM.

Take `CN(C)C1CCN(c2ccn3ncc(-c4cn(-c5cn(C6CCC(CO)CC6)nc5C(F)F)nn4)c3n2)CC1` (stereo not shown) [Compound 102A, ((1r, 4r)-4-(3-(difluoromethyl)-4-(4-(5-(4-(dimethylamino)piperidin-1-yl)pyrazolo[1,5-a]pyrimidin-3-yl)-1H-1,2,3-triazol-1-yl)-1H-pyrazol-1-ylcyclohexyl)methanol]: the IC50 fell in the range of 100 to 1000 nM. The value for `N[C@H]1CCCN(c2ccn3ncc(-c4cn(-c5cn(C6CCC(CO)CC6)nc5C(F)F)nn4)c3n2)C1` (stereo partly drawn) [Compound 103A, ((1r, 4r)-4-(4-(4-(5-((S)-3-aminopiperidin-1-yl)pyrazolo[1,5-a]pyrimidin-3-yl)-1H-1,2,3-triazol-1-yl)-3-(difluoromethyl)-1H-pyrazol-1-yl]cyclohexyl) methanol] was < 100 nM; that for `OC[C@H]1CC[C@H](n2cc(-n3cc(-c4cnn5ccc(N6CCOCC6)nc45)nn3)c(C(F)F)n2)CC1` [Compound 104A, ((1r,4r)-4-(3-(difluoromethyl)-4-(4-(5-morpholinyl-pyrazolo[1,5-a]pyrimidin-3-yl)-1H-1,2,3-triazol-1-yl)-1H-pyrazol-1-yl]cyclohexyl)methanol] was < 100 nM. The value for `OCC1CCC(n2cc(-n3cc(-c4cnn5ccc(N6C[C@H]7C[C@@H]6CO7)nc45)nn3)c(C(F)F)n2)CC1` (stereo partly drawn) [Compound 105A, ((1R,4r)-4-(4-(4-(5-((1R,4r)-2-oxa-5-azabicyclo[2.2.1]heptan-5-yl)pyrazolo[1,5-a]pyrimidin-3-yl)-1H-1,2,3-triazol-1-yl)-3-(difluoromethyl)-1H-pyrazol-1-yl)cyclohexyl)methanol] was 100 to 1000 nM; that for `N[C@@H]1CCCN(c2ccn3ncc(-c4cn(-c5cn(C6CCC(CO)CC6)nc5C(F)F)nn4)c3n2)C1` (stereo partly shown) [Compound 106A] was < 100 nM. The same measure for `OCC1CCC(n2cc(-n3cc(-c4cnn5ccc(N[C@H]6CCCC[C@H]6O)nc45)nn3)c(C(F)F)n2)CC1` (stereo partly drawn) [Compound 107A, (1R,2S)-2-((3-(1-(3-(difluoromethyl)-1-((1R,4S)-4-(methylol)cyclohexyl)-1H-pyrazol-4-yl)-1H-1,2,3-triazol-4-yl]pyrazolo[1,5-a]pyrimidin-5-yl)amino)cyclohexan-1-ol]: < 100 nM; for `NC1CN(c2ccn3ncc(-c4cn(-c5cn([C@H]6CC[C@H](CO)CC6)nc5C(F)F)nn4)c3n2)CC(F)(F)C1` (stereo partly shown) [Compound 108A]: < 100 nM. Consider `C[C@H]1CN(c2ccn3ncc(-c4cn(-c5cn(C6CCC(CO)CC6)nc5C(F)F)nn4)c3n2)C[C@H](C)O1` (stereo partly shown) [Compound 109A], for which the half-inhibitory concentration (IC50) was < 100 nM. The value for `OC[C@H]1CC[C@H](n2cc(-n3cc(-c4cnn5ccc(N[C@@H]6CCCC[C@@H]6O)nc45)nn3)c(C(F)F)n2)CC1` [Compound 111A, (1S,2R)-2-((3-(1-(3-(difluoromethyl)-1-((1r,4R)-4-(methylol)cyclohexyl)-1H-pyrazol-4-yl)-1H-1,2,3-triazol-4-yl]pyrazolo[1,5-a]pyrimidin-5-yl)amino)cyclohexan-1-ol] was < 100 nM; that for `OCC1CCC(n2cc(-n3cc(-c4cnn5ccc(N6CCC[C@H](O)C6)nc45)nn3)c(C(F)F)n2)CC1` (stereo partly drawn) [Compound 112A, (S)-1-(3-(1-(3-(difluoromethyl)-1-((1r,4r)-4-(methylol)cyclohexyl)-1H-pyrazol-4-yl)-1H-1,2,3-triazol-4-yl]pyrazolo[1,5-a]pyrimidin-5-yl)piperidin-3-ol] was < 100 nM; that for `OCC1CCC(n2cc(-n3cc(-c4cnn5ccc(N6CCC[C@@H](O)C6)nc45)nn3)c(C(F)F)n2)CC1` (stereo partly drawn) [Compound 113A, (R)-1-(3-(1-(3-(difluoromethyl)-1-((1r,4r)-4-(methylol)cyclohexyl)-1H-pyrazol-4-yl)-1H-1,2,3-triazol-4-yl]pyrazolo[1,5-a]pyrimidin-3-yl) piperidin-3-ol] was < 100 nM.

The record behind these values is patent US20260028337A1, “COMPOUND FOR INHIBITING IRAK4 ACTIVITY AND USE THEREOF” (SHENZHEN ZHONGGE BIOLOGICAL TECHNOLOGY CO., LTD., priority 2022, published 2026).
